We go through 34 compounds from ChEMBL document CHEMBL3091330, “Discovery of 3,4-Dihydropyrimidin-2(1H)-ones As a Novel Class of Potent and Selective A2B Adenosine Receptor Antagonists” (ACS Med Chem Lett, 2013).

Assay type in all cases: cell-based
Experiment [1] deals with T1, Adenosine receptor A3 (Homo sapiens) (UniProt P0DMS8).
T1 sequence (whole entry): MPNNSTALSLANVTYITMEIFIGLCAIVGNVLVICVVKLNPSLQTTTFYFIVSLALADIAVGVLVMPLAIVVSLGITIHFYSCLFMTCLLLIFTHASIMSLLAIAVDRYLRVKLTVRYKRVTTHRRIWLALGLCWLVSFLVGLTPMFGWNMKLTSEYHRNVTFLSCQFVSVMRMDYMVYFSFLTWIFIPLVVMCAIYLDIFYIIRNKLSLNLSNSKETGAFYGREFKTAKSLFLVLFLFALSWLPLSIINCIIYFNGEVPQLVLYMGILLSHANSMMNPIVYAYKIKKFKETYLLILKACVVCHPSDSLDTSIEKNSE
The experiment can be described thus: Displacement of [3H]NECA from adenosine A3 receptor in human HeLa cells at 10 uM after 180 mins. Background: Loss of bound radioactivity is the signal in a displacement assay; it reports binding, not function.

The target in another experiment is T2, Adenosine receptor A2b (Homo sapiens, UniProt P29275).
T2 sequence (P29275 whole entry): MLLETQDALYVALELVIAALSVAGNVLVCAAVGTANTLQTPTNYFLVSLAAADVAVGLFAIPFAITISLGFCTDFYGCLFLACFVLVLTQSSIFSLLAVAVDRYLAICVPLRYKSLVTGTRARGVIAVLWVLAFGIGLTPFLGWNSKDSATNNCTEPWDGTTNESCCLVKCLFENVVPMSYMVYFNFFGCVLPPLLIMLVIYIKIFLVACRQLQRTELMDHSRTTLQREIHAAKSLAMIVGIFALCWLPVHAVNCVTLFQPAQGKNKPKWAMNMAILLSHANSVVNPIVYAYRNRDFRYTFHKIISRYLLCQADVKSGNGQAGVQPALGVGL
Put plainly: Displacement of [3H]DPCPX from human adenosine A2B receptor expressed in HEK293 cells after 30 mins by Scatchard plot analysis.

The target in experiment [2] is T3, Adenosine receptor A2a (Homo sapiens, UniProt P29274). Put plainly: Displacement of [3H]ZM241385 from adenosine A2A receptor in human HeLa cells at 10 uM after 30 mins.
T3 sequence (P29274 whole entry): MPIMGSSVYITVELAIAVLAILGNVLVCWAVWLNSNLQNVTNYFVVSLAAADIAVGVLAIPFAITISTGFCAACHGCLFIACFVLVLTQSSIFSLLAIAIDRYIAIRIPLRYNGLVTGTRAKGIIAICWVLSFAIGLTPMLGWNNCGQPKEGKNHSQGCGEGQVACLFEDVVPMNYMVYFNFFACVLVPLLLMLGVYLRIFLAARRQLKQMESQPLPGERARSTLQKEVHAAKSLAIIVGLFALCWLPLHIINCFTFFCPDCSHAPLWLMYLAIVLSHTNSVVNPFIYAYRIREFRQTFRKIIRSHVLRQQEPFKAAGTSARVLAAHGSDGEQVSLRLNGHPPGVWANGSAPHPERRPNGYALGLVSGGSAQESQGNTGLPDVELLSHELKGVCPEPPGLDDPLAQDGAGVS
The target in experiment [3] is T4, Adenosine receptor A1 (Homo sapiens) (UniProt P30542).
T4 sequence (whole entry): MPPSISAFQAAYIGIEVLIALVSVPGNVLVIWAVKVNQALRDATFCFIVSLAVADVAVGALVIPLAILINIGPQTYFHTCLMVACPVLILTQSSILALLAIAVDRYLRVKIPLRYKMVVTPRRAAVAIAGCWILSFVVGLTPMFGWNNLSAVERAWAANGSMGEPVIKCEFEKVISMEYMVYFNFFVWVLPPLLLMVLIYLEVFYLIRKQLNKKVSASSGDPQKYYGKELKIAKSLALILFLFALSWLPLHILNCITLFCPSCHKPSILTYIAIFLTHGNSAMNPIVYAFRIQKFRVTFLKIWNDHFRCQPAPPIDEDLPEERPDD
The experiment can be described thus: Displacement of [3H]DPCPX from human adenosine A1 receptor expressed in CHO cells at 10 uM after 60 mins.

In experiment [4] the target is T3, Adenosine receptor A2a. The experiment can be described thus: Displacement of [3H]ZM241385 from adenosine A2A receptor in human HeLa cells after 30 mins.
Experiment [5] concerns the target T5, Adenosine receptor A2b (Homo sapiens) (UniProt P29275).
T5 sequence (whole entry): T2 sequence (P29275 whole entry)
The experiment can be described thus: Displacement of [3H]DPCPX from human from adenosine A2B receptor in HEK293 cells at 10 uM after 30 mins by Scatchard plot analysis.

A word on the inhibition: it is the percentage by which the read-out fell short of the control. A low value points to a response near the control. A word on the Ki: it is a measure of affinity in units of concentration, obtained from inhibition or displacement. Low values mean tighter binding, high ones weaker binding.

`CCOC(=O)c1c(-c2ccco2)nc(=O)[nH]c1C`: the inhibition in experiment [1] was 15%; at Adenosine receptor A2a [2] it was 11%; in experiment [3], 6%. Further, the Ki on Adenosine receptor A2b worked out at 3430 nM.

As to `CCOC(=O)C1=C(C)N=C(S)NC1c1ccco1` (racemic), the figures for the inhibition (in experiment [1]; on Adenosine receptor A2a [2]; in experiment [3]) were 5%, 32% and 1%, respectively. The affinity at Adenosine receptor A2b corresponds to a Ki of 608 nM.

On to `CCOC(=O)C1=C(C)N=C(S)NC1c1cccs1` (racemic), for which the inhibition in experiment [1] was found to be 4%; at Adenosine receptor A2a [2] it was 23%; in experiment [3] it was 2%. This compound had a Ki on Adenosine receptor A2b of 6250 nM.

For the compound `CC1=C(C(=O)OC(C)C)C(c2ccsc2)NC(=O)N1C` (racemic), the inhibition in experiment [1] turned out to be 14%; at Adenosine receptor A2a [2] it was 20%; in experiment [3] it was 33%. Moreover, the Ki at Adenosine receptor A2b turned out to be 1810 nM.

Take `CC1=C(C(=O)OC(C)C)C(c2ccco2)NC(=O)N1` (racemic): the figures for the inhibition (in experiment [1]; on Adenosine receptor A2a [2]; in experiment [3]) were 4%, 23% and 18%, respectively. The Ki at Adenosine receptor A2b was 40.8 nM.

In the case of `CCOC(=O)C1=C(C)N=C(S)NC1c1ccsc1` (racemic), the inhibition was 2% in experiment [1], 28% on Adenosine receptor A2a [2] and 23% in experiment [3]. The compound also returned an inhibition constant (Ki) on Adenosine receptor A2b of 1100 nM.

For the compound `CCOC(=O)C1=C(C)NC(=O)NC1c1ccoc1` (racemic), the inhibition in experiment [1] came to 1%; at Adenosine receptor A2a [2] it was 24%; in experiment [3] it was 21%. Further, the Ki on Adenosine receptor A2b worked out at 39.6 nM.

Regarding `CC1=C(C(=O)OC(C)C)C(c2cccs2)NC(S)=N1` (racemic), the inhibition in experiment [1] worked out at 20%; on Adenosine receptor A2a [2] it was 15%; in experiment [3], 23%. On Adenosine receptor A2b, this compound displayed a Ki of 1570 nM.

Regarding `COC(=O)C1=C(C)NC(=O)NC1c1ccco1` (racemic), the inhibition in experiment [1] stood at 13%; on Adenosine receptor A2a [2], 25%; in experiment [3] it was 34%. The affinity at Adenosine receptor A2b, expressed as Ki, was 2160 nM.

For `CCOC(=O)C1=C(C)NC(=O)NC1c1ccco1` (racemic), the values for the inhibition (in experiment [1]; on Adenosine receptor A2a [2]; in experiment [3]) were 2%, 31% and 15%, respectively. In addition, at Adenosine receptor A2b, the Ki stood at 586 nM.

As to `CCOC(=O)C1=C(C)NC(=O)N(C(C)=O)C1c1ccco1` (racemic), the inhibition in experiment [1] was found to be 1%; on Adenosine receptor A2a [2], 24%; in experiment [3] it was 19%. The same compound had a Ki on Adenosine receptor A2b of 3110 nM.

For the compound `CC1=C(C(=O)OC(C)C)C(c2ccoc2)NC(=O)N1` (racemic), the inhibition in experiment [1] came to 3%; on Adenosine receptor A2a [2], 26%; in experiment [3] it was 25%. This compound also gave a Ki on Adenosine receptor A2b of 1490 nM.

With `CCOC(=O)C1=C(C)NC(=S)NC1c1ccoc1` (racemic), the inhibition worked out at 15% in experiment [1], 25% on Adenosine receptor A2a [2] and 18% in experiment [3]. At Adenosine receptor A2b, this compound displayed a Ki of 43.1 nM.

As to `CC1=C(C(=O)OC(C)C)C(c2ccoc2)NC(=S)N1` (racemic), the inhibition stood at 23% in experiment [1], 33% on Adenosine receptor A2a [2] and 18% in experiment [3]. In addition, the Ki on Adenosine receptor A2b came to 194 nM.

Consider `CCOC(=O)C1=C(C)N(C)C(=O)NC1c1ccoc1` (racemic), for which the inhibition in experiment [1] was 1%; on Adenosine receptor A2a [2], 24%; in experiment [3] it was 17%. The same compound showed a Ki at Adenosine receptor A2b of 4260 nM.

With `CC1=C(C(=O)OC(C)C)C(c2ccsc2)NC(=O)N1` (racemic), the inhibition was 5% in experiment [1], 25% at Adenosine receptor A2a [2] and 26% in experiment [3]. This compound displayed a Ki at Adenosine receptor A2b of 56.6 nM.

Consider `CC1=C(C(=O)OC(C)C)C(c2ccsc2)NC(=S)N1` (racemic), for which the inhibition was 3% in experiment [1], 20% at Adenosine receptor A2a [2] and 16% in experiment [3]. At Adenosine receptor A2b, this compound had a Ki of 416 nM.

Regarding `CCOC(=O)C1=C(C)N(C)C(=O)NC1c1ccsc1` (racemic), the inhibition turned out to be 3% in experiment [1], 24% at Adenosine receptor A2a [2] and 30% in experiment [3]. For the same compound, the inhibition constant Ki at Adenosine receptor A2b was determined as 2970 nM.

With `CCCOC(=O)C1=C(C)NC(=O)NC1c1ccco1` (racemic), the inhibition in experiment [1] worked out at 2%; on Adenosine receptor A2a [2] it was 55%; in experiment [3], 43%. The same compound showed a Ki at Adenosine receptor A2b of 206 nM.

As to `CCOC(=O)C1=C(CC)NC(=O)NC1c1ccco1` (racemic), the inhibition in experiment [1] amounted to 3%; on Adenosine receptor A2a [2], 41%; in experiment [3], 29%. The compound further displayed a Ki on Adenosine receptor A2b of 715 nM.

As to `CCCC1=C(C(=O)OCC)C(c2ccco2)NC(=O)N1` (racemic), the figures for the inhibition in experiment [1] and in experiment [3] were 19% and 50%, respectively. Besides, the Ki turned out to be 256 nM on Adenosine receptor A2b and 602 nM on Adenosine receptor A2a [4].

With `CCOC(=O)C1=C(C)N(C)C(=O)NC1c1ccco1` (racemic), the inhibition in experiment [1] stood at 25%; on Adenosine receptor A2a [2] it was 5%; in experiment [3] it was 17%. This compound also showed a Ki at Adenosine receptor A2b of 6540 nM.

`CC1=C(C(=O)OC(C)C)C(c2ccco2)NC(=O)N1C` (racemic): the inhibition in experiment [1] amounted to 18%; on Adenosine receptor A2a [2] it was 31%; in experiment [3] it was 28%. The Ki on Adenosine receptor A2b turned out to be 1150 nM.

For `CC(=O)C1=C(C)NC(=O)NC1c1ccco1` (racemic), the inhibition in experiment [1] was 14%; in experiment [5], 38%; at Adenosine receptor A2a [2] it was 21%; in experiment [3] it was 30%.

Take `CC1=C(C(=O)Nc2ccccc2)C(c2ccco2)NC(=O)N1` (racemic): the inhibition stood at 5% in experiment [1], 31% in experiment [5], 7% at Adenosine receptor A2a [2] and 24% in experiment [3].

With `CC1=C(C(=O)OC(C)(C)C)C(c2ccco2)NC(=O)N1` (racemic), the inhibition in experiment [1] was 7%; in experiment [5] it was 44%; at Adenosine receptor A2a [2], 7%; in experiment [3], 4%.

Turning to `CC1=C(C(=O)OC(C)C)C(c2cccs2)NC(=O)N1` (racemic), the inhibition in experiment [1] is 14%; in experiment [5] it was 44%; at Adenosine receptor A2a [2], 19%; in experiment [3] it was 37%.

Take `CC1=C(C(=O)OC(C)C)C(c2cccs2)NC(=O)N1C` (racemic): the inhibition came out at 18% in experiment [1], 28% in experiment [5], 24% at Adenosine receptor A2a [2] and 22% in experiment [3].

For the compound `CC1=C(C(=O)OC(C)C)C(c2ccoc2)NC(=O)N1C` (racemic), the inhibition in experiment [1] was determined as 1%; in experiment [5] it was 35%; at Adenosine receptor A2a [2], 2%; in experiment [3], 23%.

Regarding `CC1=C(C(N)=O)C(c2ccco2)NC(=O)N1` (racemic), the inhibition came out at 2% in experiment [1], 2% in experiment [5], 1% on Adenosine receptor A2a [2] and 2% in experiment [3].

As to `CCOC(=O)C1=C(C(F)(F)F)NC(=O)NC1c1ccco1` (racemic), the inhibition stood at 2% in experiment [1], 2% in experiment [5], 32% on Adenosine receptor A2a [2] and 15% in experiment [3].

Take `CCOC(=O)C1=C(C)N(C)C(=O)NC1c1cccs1` (racemic): the inhibition in experiment [1] is 6%; in experiment [5] it was 11%; on Adenosine receptor A2a [2], 3%; in experiment [3], 2%.

Consider `CCOC(=O)C1=C(C)NC(=O)NC1c1cccs1` (racemic), for which the inhibition in experiment [1] was determined as 2%; in experiment [5], 39%; at Adenosine receptor A2a [2], 33%; in experiment [3] it was 3%.

Turning to `CCOC(=O)C1=C(c2ccccc2)NC(=O)NC1c1ccco1` (racemic), the inhibition in experiment [1] is 2%; in experiment [5], 28%; at Adenosine receptor A2a [2], 17%; in experiment [3], 3%.
